Results as given in US20140350273A1, “PEDIATRIC USES OF CABAZITAXEL” (AVENTIS PHARMA S.A., priority 2012, published 2014).
Read-outs that look alike come from different tables or passages of the source.

System: human Ewing's sarcoma DM101
Type: in vivo
Conditions: for Tumor Volume Data (Day 11) Median / ΔT/ΔC %: day 11; for MTTE / T-C: volume endpoint 2000 mm^3; for tumor volume changes from baseline, Median +/− MAD: nude mice bearing DM101 Ewing's sarcoma
Description: The resultant solution contains 10 mg/mL of cabazitaxel. Stock solution of cabazitaxel was then diluted in 0.9% sodium chloride.
This efficacy may be quantified, for example, as changes in tumor volume for each treated (T) and control (C) group, which are calculated for each animal and each day by subtracting the tumor volume on the day of first treatment (staging day) from the tumor volume on the specified observation day. This allows calculating the tumor growth inhibition: ΔT/ΔC=(median delta T/median delta C)×100. Individual tumor volume changes from baseline are thereafter analyzed by a non-parametric two-way ANOVA-TYPE (with factors: group and repeated days) followed by a post-hoc contrasts analysis, with Bonferroni-Holm adjustment for multiplicity, comparing all treated groups to the control group. […] A probability less than 5% (p<0.05) was considered as significant.
Based on the National Cancer Institute (NCl) standards, a ΔT/ΔC≦40% is the minimal level required to declare activity.
This efficacy may also be quantified by the number of tumor regressions observed after therapy. Individual mice reporting a tumor volume ≦50% of the Day 0 measurement for two consecutive measurements over a seven day period were considered partial responders (PR). Individual mice lacking palpable tumors (<4×4 mm^2 for two consecutive measurements over a seven day period) were classified as complete responders (CR); a CR that persisted until study completion was considered a tumor-free survivor (TFS).
Efficacy could also be determined at study completion, using tumor growth delay (T-C) in days, which is calculated using the median time to endpoint (MTTE) value for each treatment (T) group versus control (C). A Log Rank multiple comparison test with Bonferroni-Holm adjustment for multiplicity was applied on individual TTE to compare the treated groups to the control group.
The animals subjected to the experiment are subcutaneously grafted unilaterally with approximately 30 mg of a tumor fragment from low passage pediatric patient-derived tumor xenografts. The animals are implanted with a human patient-derived pediatric tumor xenografted in immuno-compromised mice (Harlan; nu/nu). Several days post tumor implantation, mice are randomized according to their tumor burden to the different groups of treatments and controls. The agents are dosed intravenously at 5.8, 9.3, 15 or 24.2 mg/kg every 4 days for a total of 3 doses (q4d×3) to mice bearing a tumor burden at start of therapy (day 0) ranged from 125 to 250 mm^3.
Beginning Day 0, animals were observed daily and weighed twice weekly using a digital scale; data including individual and mean gram weights (Mean We±SD), mean percent weight change versus Day 0 were recorded for each group. Animal deaths were recorded daily and designated as drug-related (D), technical (T), tumor related (B), or unknown (U) based on weight loss and gross observation; single agent or combination groups reporting a mean >20% for a period of 7 days and/or >10% mortality were considered above the maximum tolerated dose (MTD) for that treatment on the evaluated regimen.
The selected tumor model, DM101, was a low passage patient-derived tumor xenograft derived from an Ewing's sarcoma taken from the bone of a patient.
The following end points were used: • Toxicity was declared at dosages inducing ≧20% body weight loss or ≧10% drug death; • Antitumor efficacy was determined by calculating the ΔT/ΔC value in percent on day 11 post treatment initiation, according to the above mentioned formula; • Individual tumor volume changes from baseline were analyzed by a non-parametric two-way ANOVA-TYPE (with factors: group and repeated day from 4 to 14) followed by a post-hoc contrasts analysis, with Bonferroni-Holm adjustment for multiplicity, comparing all treated groups to the control group on day 11. […] The volume endpoint for T-C calculations was chosen to be 2000 mm^3.

CO[C@H]1C(=O)[C@]2(C)[C@@H](OC)C[C@H]3OC[C@@]3(OC(C)=O)[C@H]2[C@H](OC(=O)c2ccccc2)[C@]2(O)C[C@H](OC(=O)[C@H](O)[C@@H](NC(=O)OC(C)(C)C)c3ccccc3)C(C)=C1C2(C)C [Cabazitaxel, 4α-acetoxy-2α-benzoyloxy-5β,20-epoxy-1β-hydroxy-7β,10β-dimethoxy-9-oxo-11-taxen-13α-yl (2R,3S)-3-tert-butoxycarbonyl-amino-2-hydroxy-3-phenylpropionate]
#CR (5.8 mg/kg i.v./q4d × 3): 0/0/0 | #PR (5.8 mg/kg i.v./q4d × 3): 0/0/0 | #TFS (5.8 mg/kg i.v./q4d × 3): 0/0/0 | Drug Deaths Total (5.8 mg/kg i.v./q4d × 3): 0 | Tumor Volume Data (Day 11) Median (5.8 mg/kg i.v./q4d × 3): 204 mm^3 | ΔT/ΔC % (5.8 mg/kg i.v./q4d × 3): 8.9% | MTTE (5.8 mg/kg i.v./q4d × 3): 34.8 days | T-C (5.8 mg/kg i.v./q4d × 3): 17.9 days | tumor volume changes from baseline, Median +/− MAD (5.8 mg/kg, DAY 4): 0 +/− 0 (n = 9) | tumor volume changes from baseline, Median +/− MAD (5.8 mg/kg, DAY 7): 34 +/− 34 | tumor volume changes from baseline, Median +/− MAD (5.8 mg/kg, DAY 11): 73 +/− 73 | tumor volume changes from baseline, Median +/− MAD (5.8 mg/kg, DAY 14): 155 +/− 136 | tumor volume changes from baseline, Median +/− MAD (5.8 mg/kg, DAY 17): 306 +/− 152 | tumor volume changes from baseline, Median +/− MAD (5.8 mg/kg, DAY 20): 489 +/− 199 | tumor volume changes from baseline, Median +/− MAD (5.8 mg/kg, DAY 25): 696.5 | tumor volume changes from baseline, Median +/− MAD (5.8 mg/kg, DAY 28): 1097 +/− 117 | tumor volume changes from baseline, Median +/− MAD (5.8 mg/kg, DAY 32): 1396 | #CR (9.3 mg/kg i.v./q4d × 3): 1/1/1 | #PR (9.3 mg/kg i.v./q4d × 3): 1/1/1 | #TFS (9.3 mg/kg i.v./q4d × 3): 1/1/1 | Drug Deaths Total (9.3 mg/kg i.v./q4d × 3): 0 | Weight Nadir % (9.3 mg/kg i.v./q4d × 3): −2% | Weight Nadir Day (9.3 mg/kg i.v./q4d × 3): 7 | Tumor Volume Data (Day 11) Median (9.3 mg/kg i.v./q4d × 3): 255 mm^3 | ΔT/ΔC % (9.3 mg/kg i.v./q4d × 3): 9.4% | MTTE (9.3 mg/kg i.v./q4d × 3): 23.9 days | T-C (9.3 mg/kg i.v./q4d × 3): 7 days | tumor volume changes from baseline, Median +/− MAD (9.3 mg/kg, DAY 4): 0 +/− 33 | tumor volume changes from baseline, Median +/− MAD (9.3 mg/kg, DAY 7): 13 +/− 41 | tumor volume changes from baseline, Median +/− MAD (9.3 mg/kg, DAY 11): 77 +/− 118 | tumor volume changes from baseline, Median +/− MAD (9.3 mg/kg, DAY 14): 188 +/− 241 | tumor volume changes from baseline, Median +/− MAD (9.3 mg/kg, DAY 17): 498 +/− 485 | tumor volume changes from baseline, Median +/− MAD (9.3 mg/kg, DAY 20): 766 +/− 713 | tumor volume changes from baseline, Median +/− MAD (9.3 mg/kg, DAY 25): 1095 | tumor volume changes from baseline, Median +/− MAD (9.3 mg/kg, DAY 28): 182.5 +/− 248 | tumor volume changes from baseline, Median +/− MAD (9.3 mg/kg, DAY 32): 385 +/− 414 | #CR (15 mg/kg i.v./q4d × 3): 9 | #PR (15 mg/kg i.v./q4d × 3): 9 | #TFS (15 mg/kg i.v./q4d × 3): 7 | Drug Deaths Total (15 mg/kg i.v./q4d × 3): 0 | Weight Nadir % (15 mg/kg i.v./q4d × 3): −3% | Weight Nadir Day (15 mg/kg i.v./q4d × 3): 7 | Tumor Volume Data (Day 11) Median (15 mg/kg i.v./q4d × 3): 0 mm^3 | ΔT/ΔC % (15 mg/kg i.v./q4d × 3): −16% | MTTE (15 mg/kg i.v./q4d × 3): >61 days | T-C (15 mg/kg i.v./q4d × 3): >44.1 days | CR (15 mg/kg q4d×3 IV): 9/9 | TFS (15 mg/kg q4d×3 IV): 7/9 | tumor volume changes from baseline, Median +/− MAD (15 mg/kg, DAY 4): 0 +/− 0 (n = 9) | tumor volume changes from baseline, Median +/− MAD (15 mg/kg, DAY 7): −113 +/− 32 | tumor volume changes from baseline, Median +/− MAD (15 mg/kg, DAY 11): −131 +/− 47 | tumor volume changes from baseline, Median +/− MAD (15 mg/kg, DAY 14): −131 +/− 47 | tumor volume changes from baseline, Median +/− MAD (15 mg/kg, DAY 17): −131 +/− 47 | tumor volume changes from baseline, Median +/− MAD (15 mg/kg, DAY 20): −131 +/− 47 | tumor volume changes from baseline, Median +/− MAD (15 mg/kg, DAY 25): −131 +/− 47 | tumor volume changes from baseline, Median +/− MAD (15 mg/kg, DAY 28): −131 +/− 47 | tumor volume changes from baseline, Median +/− MAD (15 mg/kg, DAY 32): −131 +/− 40 | #CR (24.2 mg/kg i.v./q4d × 3): 9 | #PR (24.2 mg/kg i.v./q4d × 3): 9 | #TFS (24.2 mg/kg i.v./q4d × 3): 8 | Drug Deaths Total (24.2 mg/kg i.v./q4d × 3): 0 | Weight Nadir % (24.2 mg/kg i.v./q4d × 3): −5% | Weight Nadir Day (24.2 mg/kg i.v./q4d × 3): 11 | Tumor Volume Data (Day 11) Median (24.2 mg/kg i.v./q4d × 3): 0 mm^3 | ΔT/ΔC % (24.2 mg/kg i.v./q4d × 3): −18.3% | MTTE (24.2 mg/kg i.v./q4d × 3): >61 days | T-C (24.2 mg/kg i.v./q4d × 3): >44.1 days | CR (24.2 mg/kg q4d×3 IV): 9/9 | TFS (24.2 mg/kg q4d×3 IV): 8/9 | tumor volume changes from baseline, Median +/− MAD (24.2 mg/kg, DAY 4): −19 +/− 19 | tumor volume changes from baseline, Median +/− MAD (24.2 mg/kg, DAY 7): −150 +/− 52 | tumor volume changes from baseline, Median +/− MAD (24.2 mg/kg, DAY 11): −150 +/− 38 | tumor volume changes from baseline, Median +/− MAD (24.2 mg/kg, DAY 14): −150 +/− 38 | tumor volume changes from baseline, Median +/− MAD (24.2 mg/kg, DAY 17): −150 +/− 38 | tumor volume changes from baseline, Median +/− MAD (24.2 mg/kg, DAY 20): −150 +/− 38 | tumor volume changes from baseline, Median +/− MAD (24.2 mg/kg, DAY 25): −150 +/− 38 | tumor volume changes from baseline, Median +/− MAD (24.2 mg/kg, DAY 28): −150 +/− 38 | tumor volume changes from baseline, Median +/− MAD (24.2 mg/kg, DAY 32): −150 +/− 38 | antitumor activity compared with docetaxel (conclusion of example 6, 15 or 24.2 mg/kg, same or equi-toxic dose): significantly more active than docetaxel
